Data from patent US20260174875A1 (Novo Nordisk A/S, priority 2023, published 2026).

Assay: Chemical stability assessment in formulation (UPLC-UV-MS purity loss at 37° C.)
Format: physicochemical
Conditions: 8 mM phosphate buffer pH 7.4, 1 mg/mL, 2 weeks
Description: The assay was performed to investigate the extend of chemical degradation in vitro over time upon incubation at 37° C. for a period of 2 weeks.
Peptide solutions were prepared by dissolving freeze-dried powder in 8 mM phosphate buffer pH 7.4 to a target of 1 mg/mL. The pH of peptide solutions was adjusted to 7.4 with 0.02 M HCl or 0.02 M NaOH. Samples were filled in Agilent HPLC vials with fixed insert. Vials were capped to prevent evaporation. The HPLC vials were incubated at 37° C. and samples were withdrawn at different time points over a period of 2 weeks, flash frozen at −80° C., and stored at −20° C. until analysis.
A flow-rate of 100 μL/min was delivered with a Binary solvent manager pump having 0.1% formic acid in water as solvent A and 0.1% formic acid in acetonitrile as solvent B. Gradient elution was carried out using 20% B from 0 to 2 min followed by 20 to 50% B from 2 to 20 min in a total run time of 30 min.

Row | Compound | Purity loss per week at 37° C. [%]
1 | CC[C@H](C)[C@H](NC(=O)[C@H](CCC(=O)O)NC(=O)[C@H](CCC(=O)O)NC(=O)[C@H](CC(C)C)NC(=O)[C@H](CC(C)C)NC(=O)[C@H](CCCCNC(=O)COCCOCCNC(=O)COCCOCCNC(=O)CC[C@H](NC(=O)CCCCCCCCCCCCCCCCCCC(=O)O)C(=O)O)NC(=O)[C@H](CO)NC(=O)[C@H](Cc1ccc(O)cc1)NC(=O)[C@H](CC(=O)O)NC(=O)[C@H](CO)NC(=O)[C@@H](NC(=O)[C@H](Cc1ccccc1)NC(=O)[C@@H](NC(=O)CNC(=O)[C@H](CCC(=O)O)NC(=O)C(C)(C)NC(=O)[C@@H](N)Cc1ccc(O)cc1)[C@@H](C)O)[C@@H](C)O)C(=O)N[C@@H](C)C(=O)N[C@@H](C)C(=O)N[C@@H](CCCNC(=N)N)C(=O)N[C@@H](CCC(=O)O)C(=O)N[C@@H](Cc1ccccc1)C(=O)N[C@H](C(=O)N[C@@H](CCC(=O)O)C(=O)N[C@@H](Cc1c[nH]c2ccccc12)C(=O)N[C@@H](CC(C)C)C(=O)N[C@@H](CC(C)C)C(=O)N[C@@H](C)C(=O)NCC(=O)NCC(=O)N1CCC[C@H]1C(=O)N[C@@H](CO)C(=O)N[C@@H](CO)C(=O)NCC(=O)N[C@@H](C)C(=O)NCC(=O)N[C@@H](CCC(N)=O)C(=O)N[C@@H](C)C(=O)N1CCC[C@H]1C(=O)NCC(=O)N[C@@H](CCC(=O)O)C(=O)N[C@@H](C)C(=O)N1CCC[C@H]1C(=O)NCC(=O)N[C@@H](C)C(=O)N[C@@H](CO)C(=O)N[C@@H](CCC(=O)O)C(=O)N[C@@H](CC(C)C)C(=O)N[C@@H](CO)C(=O)N[C@H](C(=O)N[C@@H](C)C(=O)N[C@@H](C)C(=O)N[C@@H](CC(C)C)C(=O)NCC(=O)N[C@@H](CCCNC(=N)N)C(=O)N[C@@H](CC(C)C)C(=O)N[C@@H](CO)C(=O)N[C@@H](C)C(=O)N[C@@H](CCC(=O)O)C(=O)N[C@@H](CC(C)C)C(=O)N[C@@H](Cc1c[nH]cn1)C(=O)N[C@@H](CCC(N)=O)C(=O)N[C@@H](CC(C)C)C(=O)N[C@@H](C)C(=O)N[C@H](C(=O)N[C@@H](CCC(=O)O)C(=O)N1CCC[C@H]1C(=O)N[C@@H](CCCNC(=N)N)C(=O)N[C@H](C(=O)N[C@@H](CCC(=O)O)C(=O)N[C@H](C(=O)NCC(=O)N[C@@H](CO)C(=O)NCC(=O)N[C@@H](CO)C(=O)N1CCC[C@H]1C(N)=O)[C@@H](C)O)[C@@H](C)O)[C@@H](C)O)[C@@H](C)O)[C@@H](C)CC [Compound 172] | 0.9
2 | CC[C@H](C)[C@H](NC(=O)[C@H](CCC(=O)O)NC(=O)[C@H](CCC(=O)O)NC(=O)[C@H](CC(C)C)NC(=O)[C@H](CC(C)C)NC(=O)[C@@H](NC(=O)[C@H](CO)NC(=O)[C@H](Cc1ccc(O)cc1)NC(=O)[C@H](CC(=O)O)NC(=O)[C@H](CO)NC(=O)[C@@H](NC(=O)[C@H](Cc1ccccc1)NC(=O)[C@@H](NC(=O)CNC(=O)[C@H](CCC(=O)O)NC(=O)C(C)(C)NC(=O)[C@@H](N)Cc1ccc(O)cc1)[C@@H](C)O)[C@@H](C)O)[C@@H](C)CC)C(=O)N[C@@H](C)C(=O)N[C@@H](C)C(=O)N[C@@H](CCCNC(=N)N)C(=O)N[C@@H](CCC(=O)O)C(=O)N[C@@H](Cc1ccccc1)C(=O)N[C@H](C(=O)N[C@@H](CCC(=O)O)C(=O)N[C@@H](Cc1c[nH]c2ccccc12)C(=O)N[C@@H](CC(C)C)C(=O)N[C@@H](CC(C)C)C(=O)N[C@@H](C)C(=O)NCC(=O)NCC(=O)N1CCC[C@H]1C(=O)N[C@@H](CO)C(=O)N[C@@H](CO)C(=O)NCC(=O)N[C@@H](C)C(=O)NCC(=O)N[C@@H](C)C(=O)N[C@@H](CO)C(=O)N[C@@H](CCC(N)=O)C(=O)N[C@@H](CC(C)C)C(=O)N[C@@H](CO)C(=O)N[C@H](C(=O)N[C@@H](C)C(=O)N[C@@H](CCC(N)=O)C(=O)N[C@H](C(=O)N[C@@H](CCC(N)=O)C(=O)N[C@@H](CCCNC(=N)N)C(=O)N[C@@H](CC(C)C)C(=O)N[C@@H](CO)C(=O)N[C@@H](C)C(=O)N[C@@H](CCC(=O)O)C(=O)N[C@@H](CC(C)C)C(=O)N[C@@H](Cc1c[nH]cn1)C(=O)N[C@@H](CCCCNC(=O)COCCOCCNC(=O)COCCOCCNC(=O)CC[C@H](NC(=O)CCCCCCCCCCCCCCCCCCC(=O)O)C(=O)O)C(=O)N[C@@H](CC(C)C)C(=O)N[C@@H](C)C(=O)N[C@H](C(=O)N[C@@H](CCC(=O)O)C(=O)N1CCC[C@H]1C(=O)N[C@@H](CCCNC(=N)N)C(=O)N[C@H](C(=O)N[C@@H](CCC(=O)O)C(=O)N[C@H](C(=O)NCC(=O)N[C@@H](CO)C(=O)NCC(=O)N[C@@H](CO)C(=O)N1CCC[C@H]1C(N)=O)[C@@H](C)O)[C@@H](C)O)[C@@H](C)O)[C@@H](C)O)[C@@H](C)O)[C@@H](C)CC [Compound 180] | 0.7
3 | CC[C@H](C)[C@H](NC(=O)[C@H](CCC(=O)O)NC(=O)[C@H](CCC(=O)O)NC(=O)[C@H](CC(C)C)NC(=O)[C@H](CC(C)C)NC(=O)[C@H](CCCCNC(=O)COCCOCCNC(=O)COCCOCCNC(=O)CC[C@H](NC(=O)CCCCCCCCCCCCCCCCCCC(=O)O)C(=O)O)NC(=O)[C@H](CO)NC(=O)[C@H](Cc1ccc(O)cc1)NC(=O)[C@H](CC(=O)O)NC(=O)[C@H](CO)NC(=O)[C@@H](NC(=O)[C@H](Cc1ccccc1)NC(=O)[C@@H](NC(=O)CNC(=O)[C@H](CCC(=O)O)NC(=O)C(C)(C)NC(=O)[C@@H](N)Cc1ccc(O)cc1)[C@@H](C)O)[C@@H](C)O)C(=O)N[C@@H](C)C(=O)N[C@@H](C)C(=O)N[C@@H](CCCNC(=N)N)C(=O)N[C@@H](CCC(=O)O)C(=O)N[C@@H](Cc1ccccc1)C(=O)N[C@H](C(=O)N[C@@H](CCC(=O)O)C(=O)N[C@@H](Cc1c[nH]c2ccccc12)C(=O)N[C@@H](CC(C)C)C(=O)N[C@@H](CC(C)C)C(=O)N[C@@H](C)C(=O)NCC(=O)NCC(=O)N1CCC[C@H]1C(=O)N[C@@H](CO)C(=O)N[C@@H](CO)C(=O)NCC(=O)N[C@@H](C)C(=O)NCC(=O)N[C@@H](C)C(=O)N[C@@H](CO)C(=O)N[C@@H](Cc1c[nH]cn1)C(=O)N[C@@H](CC(C)C)C(=O)N[C@@H](CO)C(=O)N[C@H](C(=O)N[C@@H](C)C(=O)N[C@@H](CCC(N)=O)C(=O)N[C@@H](CC(C)C)C(=O)NCC(=O)N[C@@H](CCCNC(=N)N)C(=O)N[C@@H](CC(C)C)C(=O)N[C@@H](CO)C(=O)N[C@@H](C)C(=O)N[C@@H](CCC(=O)O)C(=O)N[C@@H](CC(C)C)C(=O)N[C@@H](Cc1c[nH]cn1)C(=O)N[C@@H](CCC(N)=O)C(=O)N[C@@H](CC(C)C)C(=O)N[C@@H](C)C(=O)N[C@H](C(=O)N[C@@H](CCC(=O)O)C(=O)N1CCC[C@H]1C(=O)N[C@@H](CCCNC(=N)N)C(=O)N[C@H](C(=O)N[C@@H](CCC(=O)O)C(=O)N[C@H](C(=O)NCC(=O)N[C@@H](CO)C(=O)NCC(=O)N[C@@H](CO)C(=O)N1CCC[C@H]1C(N)=O)[C@@H](C)O)[C@@H](C)O)[C@@H](C)O)[C@@H](C)O)[C@@H](C)CC [Compound 184] | 1.0
4 | CC[C@H](C)[C@H](NC(=O)[C@H](CCC(=O)O)NC(=O)[C@H](CCC(=O)O)NC(=O)[C@H](CC(C)C)NC(=O)[C@H](CC(C)C)NC(=O)[C@H](CCCCNC(=O)COCCOCCNC(=O)COCCOCCNC(=O)CC[C@H](NC(=O)CCCCCCCCCCCCCCCCCCC(=O)O)C(=O)O)NC(=O)[C@H](CO)NC(=O)[C@H](Cc1ccc(O)cc1)NC(=O)[C@H](CC(=O)O)NC(=O)[C@H](CO)NC(=O)[C@@H](NC(=O)[C@H](Cc1ccccc1)NC(=O)[C@@H](NC(=O)CNC(=O)[C@H](CCC(=O)O)NC(=O)C(C)(C)NC(=O)[C@@H](N)Cc1ccc(O)cc1)[C@@H](C)O)[C@@H](C)O)C(=O)N[C@@H](C)C(=O)N[C@@H](C)C(=O)N[C@@H](CCCNC(=N)N)C(=O)N[C@@H](CCC(=O)O)C(=O)N[C@@H](Cc1ccccc1)C(=O)N[C@H](C(=O)N[C@@H](CCC(=O)O)C(=O)N[C@@H](Cc1c[nH]c2ccccc12)C(=O)N[C@@H](CC(C)C)C(=O)N[C@@H](CC(C)C)C(=O)N[C@@H](C)C(=O)NCC(=O)NCC(=O)N1CCC[C@H]1C(=O)N[C@@H](CO)C(=O)N[C@@H](CO)C(=O)N[C@@H](CCC(=O)O)C(=O)N[C@@H](C)C(=O)NCC(=O)N[C@@H](C)C(=O)N[C@@H](CO)C(=O)N[C@@H](Cc1c[nH]cn1)C(=O)N[C@@H](CC(C)C)C(=O)N[C@@H](CO)C(=O)N[C@H](C(=O)N[C@@H](C)C(=O)N[C@@H](CCC(N)=O)C(=O)N[C@@H](CC(C)C)C(=O)NCC(=O)N[C@@H](CCCNC(=N)N)C(=O)N[C@@H](CC(C)C)C(=O)N[C@@H](CO)C(=O)N[C@@H](C)C(=O)N[C@@H](CCC(=O)O)C(=O)N[C@@H](CC(C)C)C(=O)N[C@@H](Cc1c[nH]cn1)C(=O)N[C@@H](CCC(N)=O)C(=O)N[C@@H](CC(C)C)C(=O)N[C@@H](C)C(=O)N[C@H](C(=O)N[C@@H](CCC(=O)O)C(=O)N1CCC[C@H]1C(=O)N[C@@H](CCCNC(=N)N)C(=O)N[C@H](C(=O)N[C@@H](CCC(=O)O)C(=O)N[C@H](C(=O)NCC(=O)N[C@@H](CO)C(=O)NCC(=O)N[C@@H](CO)C(=O)N1CCC[C@H]1C(N)=O)[C@@H](C)O)[C@@H](C)O)[C@@H](C)O)[C@@H](C)O)[C@@H](C)CC [Compound 185] | 1.7
